The source of these data is the Kinase Knowledgebase extract (Sharma et al. 2016).

Molecules are shown by their SMILES. Bounds are passed on as bounds.

The target of the assay is PIK3CA (human) (UniProt P42336). In words: Assessment of PIK3CA Kinase Activity.
PIK3CA (human), sequence (P42336 whole entry, looked up): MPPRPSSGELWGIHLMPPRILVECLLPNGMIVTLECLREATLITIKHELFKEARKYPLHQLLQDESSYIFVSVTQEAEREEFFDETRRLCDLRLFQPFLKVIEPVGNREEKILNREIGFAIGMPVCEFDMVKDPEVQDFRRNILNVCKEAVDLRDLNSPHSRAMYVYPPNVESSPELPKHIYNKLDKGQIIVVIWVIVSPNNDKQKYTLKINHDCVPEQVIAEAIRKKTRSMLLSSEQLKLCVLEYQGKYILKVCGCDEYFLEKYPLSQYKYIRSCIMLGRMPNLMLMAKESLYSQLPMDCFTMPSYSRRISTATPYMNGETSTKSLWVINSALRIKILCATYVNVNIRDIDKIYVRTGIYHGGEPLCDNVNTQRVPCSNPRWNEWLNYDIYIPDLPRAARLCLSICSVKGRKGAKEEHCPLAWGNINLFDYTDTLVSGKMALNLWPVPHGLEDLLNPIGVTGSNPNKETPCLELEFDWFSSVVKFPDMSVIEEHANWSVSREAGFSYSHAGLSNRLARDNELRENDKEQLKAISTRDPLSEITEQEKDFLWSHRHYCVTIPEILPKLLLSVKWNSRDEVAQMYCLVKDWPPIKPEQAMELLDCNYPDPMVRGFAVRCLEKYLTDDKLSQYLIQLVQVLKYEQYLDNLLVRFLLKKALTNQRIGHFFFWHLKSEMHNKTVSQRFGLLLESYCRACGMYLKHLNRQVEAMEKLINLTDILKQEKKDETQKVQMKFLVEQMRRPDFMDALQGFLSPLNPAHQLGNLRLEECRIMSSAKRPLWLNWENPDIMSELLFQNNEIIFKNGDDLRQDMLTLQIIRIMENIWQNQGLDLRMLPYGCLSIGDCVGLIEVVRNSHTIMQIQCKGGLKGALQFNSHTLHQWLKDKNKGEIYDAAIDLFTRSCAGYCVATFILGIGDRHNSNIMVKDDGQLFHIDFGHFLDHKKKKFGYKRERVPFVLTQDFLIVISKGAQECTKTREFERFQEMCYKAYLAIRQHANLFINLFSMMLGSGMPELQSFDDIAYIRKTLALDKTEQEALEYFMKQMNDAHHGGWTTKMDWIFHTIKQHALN

`CC(C)n1ncnc1-c1nc2c(s1)CCOc1ccc(-c3ccc(=O)n(C)c3)cc1-2` came in with an IC50 of under 1000 nM.
The result for `Cc1nc(-c2nc3c(s2)CCOc2cc(-c4cn(CCO)cn4)ccc2-3)n(C(C)C)n1` reads under 1000 nM.
In the case of `CC(C)CCN(C)C(=O)c1nc2c(s1)CCOc1cc(-c3cn[nH]c3)ccc1-2` it was under 1000 nM.

Broadly, the IC50 is the midpoint of a concentration-inhibition curve. Low values mean greater potency in that assay, high ones weaker potency in that assay.
